# Reference: ChEMBL document CHEMBL1129993, “Synthesis and biological characterization of 1,4,5,6-tetrahydropyrimidine and 2-amino-3,4,5,6-tetrahydropyridine derivatives as selective m1 agonists” (J Med Chem, 1997)
# Key:
# [1] = target: T1, Muscarinic acetylcholine receptor M1 (Mus musculus) (UniProt P12657); experiment: Percent inhibition (high) of [3H](R)-QNB binding to Muscarinic acetylcholine receptor M1 expressed in A9 L cell line in the absence of 300 uM GTP-gamma-S; format: cell-based; conditions: A9L
# T1 sequence (whole entry): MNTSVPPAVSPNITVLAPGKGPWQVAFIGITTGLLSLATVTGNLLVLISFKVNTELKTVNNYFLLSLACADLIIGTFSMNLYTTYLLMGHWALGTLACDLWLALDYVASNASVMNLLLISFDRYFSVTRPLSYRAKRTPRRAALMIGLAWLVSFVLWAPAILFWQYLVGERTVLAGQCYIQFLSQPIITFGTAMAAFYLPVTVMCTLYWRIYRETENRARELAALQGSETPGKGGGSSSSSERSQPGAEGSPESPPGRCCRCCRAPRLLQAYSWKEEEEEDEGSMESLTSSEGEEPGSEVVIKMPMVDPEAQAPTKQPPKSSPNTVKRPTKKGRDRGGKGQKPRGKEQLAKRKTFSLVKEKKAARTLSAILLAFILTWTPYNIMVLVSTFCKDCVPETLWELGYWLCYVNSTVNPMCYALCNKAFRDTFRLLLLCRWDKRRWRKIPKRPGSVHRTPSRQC
# [2] = target: T2, Muscarinic acetylcholine receptor M2 (Mus musculus) (UniProt Q9ERZ4); conditions: A9L
# T2 sequence (whole entry): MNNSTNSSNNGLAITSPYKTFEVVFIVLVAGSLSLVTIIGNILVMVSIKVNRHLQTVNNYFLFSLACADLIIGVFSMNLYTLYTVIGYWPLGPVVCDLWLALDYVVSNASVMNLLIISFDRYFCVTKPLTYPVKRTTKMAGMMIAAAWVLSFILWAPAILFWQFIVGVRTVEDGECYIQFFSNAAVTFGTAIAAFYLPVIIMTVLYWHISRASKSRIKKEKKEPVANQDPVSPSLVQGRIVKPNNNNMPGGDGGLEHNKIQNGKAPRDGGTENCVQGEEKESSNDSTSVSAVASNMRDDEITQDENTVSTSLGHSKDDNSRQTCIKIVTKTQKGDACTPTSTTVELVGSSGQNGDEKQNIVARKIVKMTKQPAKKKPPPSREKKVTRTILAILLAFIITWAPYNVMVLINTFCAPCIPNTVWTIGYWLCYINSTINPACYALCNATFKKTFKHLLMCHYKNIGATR
# [3] = target: Muscarinic acetylcholine receptor M3 (Mus musculus) (UniProt Q9ERZ3); experiment: Percent inhibition (high) of [3H](R)-QNB binding to Muscarinic acetylcholine receptor M3 expressed in A9 L cell line; format: cell-based; conditions: A9L, concentration not given here
# [4] = target: Muscarinic acetylcholine receptor M3 (Mus musculus) (UniProt Q9ERZ3); conditions: A9L
# Description: Binding affinity (low) of [3H](R)-QNB binding to Muscarinic acetylcholine receptor M3 expressed in A9 L cell line
# [5] = target: Muscarinic acetylcholine receptor M3 (Mus musculus) (UniProt Q9ERZ3); experiment: Binding affinity (high) of [3H](R)-QNB binding to Muscarinic acetylcholine receptor M3 expressed in A9 L cell line; format: cell-based; conditions: A9L
# [6] = target: T2, Muscarinic acetylcholine receptor M2 (Mus musculus); conditions: A9L; remark: listed apart in the source
# Sequence of Muscarinic acetylcholine receptor M3 (Mus musculus) (Q9ERZ3 whole entry): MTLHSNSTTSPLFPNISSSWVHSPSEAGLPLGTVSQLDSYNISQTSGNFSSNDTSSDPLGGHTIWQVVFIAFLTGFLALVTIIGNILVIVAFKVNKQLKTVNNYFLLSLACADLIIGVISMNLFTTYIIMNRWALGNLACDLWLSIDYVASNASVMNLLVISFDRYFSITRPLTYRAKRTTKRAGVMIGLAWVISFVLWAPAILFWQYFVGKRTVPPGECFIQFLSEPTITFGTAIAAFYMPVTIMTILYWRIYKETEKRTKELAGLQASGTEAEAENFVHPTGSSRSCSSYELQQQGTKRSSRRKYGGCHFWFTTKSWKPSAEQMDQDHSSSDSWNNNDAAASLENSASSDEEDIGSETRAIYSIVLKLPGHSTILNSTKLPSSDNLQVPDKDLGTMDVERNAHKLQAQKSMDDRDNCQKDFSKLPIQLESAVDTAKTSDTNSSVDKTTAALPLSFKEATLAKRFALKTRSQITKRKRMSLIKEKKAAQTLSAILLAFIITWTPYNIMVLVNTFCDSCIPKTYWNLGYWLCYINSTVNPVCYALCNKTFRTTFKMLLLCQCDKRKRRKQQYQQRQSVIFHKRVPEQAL
Structure (SMILES),inhibition [1] [%],KL [2] [nM],inhibition [3] [%],KL [4] [nM],KH [5] [nM],KH [6] [nM]
C#CCCOC(=O)C1CN=CNC1 (stereo not given),23.2,–,–,–,–,–
Cc1noc(C2CN=CNC2)n1 (stereo not given),30.9,0.46,95,0.57,–,–
Cc1noc(C2=CCCN(C)C2)n1,–,0.087,29,0.46,16,–
CC#CCOC(=O)C1CN=CNC1 (stereo not given),23.4,–,–,–,–,–
C[N+](C)(C)CCOC(N)=O,–,12,19,8.4,56,0.81
COC(=O)C1CN=CNC1 (stereo not given),23.5,3.3,–,3.3,–,–
C#CCOC(=O)C1CN=CNC1 (stereo not given),31.5,–,–,–,–,–
CCCC#Cc1noc(C2CN=CNC2)n1 (stereo not given),32.5,–,–,–,–,–
